Laboratory results as given in patent publication US20240239801A1, “PYRIMIDO[5,4,D]PYRIMIDINE COMPOUNDS, COMPOSITIONS COMPRISING THEM AND USES THEREOF” (Université de Montréal, priority 2021, published 2024).

test system: RAS-mutant HCT-116 cells pERK/pMEK; assay: Immunoblot analysis of pERK and pMEK; type: cell-based, human; settings: FIG. 2, 1 h treatment
Protocol: For immunoblotting analysis, 500,000 HCT-116 cells were plated in 1 mL of complete RPMI-1640 growth medium in 24-well flat-bottomed transparent dishes (Costar). Cells were maintained overnight at 37° C. under 5% CO2 before treatment with compounds' dilution series for one hour. Cells were then washed once in PBS and lized in 250 μL of Igepal Lysis Buffer (50 mM Tris-HCl pH 7.5, 150 mM NaCl, 1% Igepal-CA630, 1 mM EDTA, 10% Glycerol) supplemented with Leupeptin, Aprotinin, PMSF, phosphatase inhibitor cocktail (Sigma) and Na3VO4 at 4° C. for 15 minutes with gentle rocking. Cell extracts were then cleared by centrifugation at 20,000 g at 4° C. for 10 minutes. Cleared lysates were then transferred on ice in fresh tubes and then boiled in sample loading buffer (100 mM Tris-HCl pH 6.8, 4% SDS, 0.2% bromophenol blue, 20% glycerol, 200 mM β-mercaptoethanol) for 5 minutes prior to fractionation by SDS-PAGE and transfer to nitrocellulose membranes (PALL). […]

Nc1cccc2c1ncn2-c1ncc2ncnc(Nc3c(F)ccc(NS(=O)(=O)c4cccc(Cl)c4Cl)c3F)c2n1 [Example 80] was tested, and the “paradoxical induction of pERK or pMEK signaling (immunoblot)” value was “does not induce paradoxical induction of pERK or pMEK signaling”.

biological target: CRAF (Homo sapiens, UniProt P04049); assay: CRAF kinase activity assay (ADP-Glo); type: biochemical; settings: Table 3
Procedure, shortened: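 CRAF inhibition was measured by ADP-Glo. 0.375 nM purified GST-tagged CRAF was combined with 75 nM kinase-dead MEK1 substrate and 10 μM ATP in 50 mM HEPES pH 7.5, 10 mM MgCl2, 1 mM EDTA, 0.01% Brij-35 and 2 mM DTT, with nine compound concentrations from 100 nM to 0.01 nM (0.05% DMSO), in 384-well plates for 2 hours at 30° C. Luminescence was read after adding ADP-Glo and Kinase Detection reagents. IC50 came from four-parameter curve fits.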

Sequence of CRAF (P04049 whole entry): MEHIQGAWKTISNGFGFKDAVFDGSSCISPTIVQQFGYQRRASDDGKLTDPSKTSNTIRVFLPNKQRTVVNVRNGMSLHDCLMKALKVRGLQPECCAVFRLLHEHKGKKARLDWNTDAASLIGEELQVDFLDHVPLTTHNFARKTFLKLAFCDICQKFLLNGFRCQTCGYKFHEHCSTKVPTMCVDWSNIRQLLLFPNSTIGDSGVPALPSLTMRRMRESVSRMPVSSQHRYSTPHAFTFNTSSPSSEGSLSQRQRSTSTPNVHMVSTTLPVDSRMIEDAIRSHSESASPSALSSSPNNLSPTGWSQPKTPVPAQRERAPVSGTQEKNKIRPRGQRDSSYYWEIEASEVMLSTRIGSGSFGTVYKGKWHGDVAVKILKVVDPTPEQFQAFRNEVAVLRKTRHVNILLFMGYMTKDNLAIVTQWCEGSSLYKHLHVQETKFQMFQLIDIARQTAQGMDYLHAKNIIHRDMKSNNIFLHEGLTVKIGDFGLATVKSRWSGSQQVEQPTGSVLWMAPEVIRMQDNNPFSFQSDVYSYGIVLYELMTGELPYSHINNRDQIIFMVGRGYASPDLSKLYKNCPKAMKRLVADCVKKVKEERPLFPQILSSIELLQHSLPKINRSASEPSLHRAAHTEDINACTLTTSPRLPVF

Compared with O=S(=O)(Nc1ccc(F)c(Nc2ncnc3cnc(-n4cnc5c(N6CCC7(CCCO7)CC6)cccc54)nc23)c1F)c1cccc(Cl)c1Cl [Example 129], Nc1cccc2c1ncn2-c1ncc2ncnc(Nc3c(F)ccc(NS(=O)(=O)c4cccc(Cl)c4Cl)c3F)c2n1 [Example 80] is lower in IC50: 10 to 50 nM for the first, < 10 nM for the second. The second is the more potent here.

COc1ccc(S(=O)(=O)Nc2ccc(F)c(Nc3ncnc4cnc(-n5cnc6c(N)cccc65)nc34)c2F)c(C)c1Cl [Example 112] and Cc1c(F)cccc1S(=O)(=O)Nc1ccc(F)c(Nc2ncnc3cnc(-n4cnc5c(-c6cccnc6)cccc54)nc23)c1F [Example 114] fall in the same range of IC50: 10 to 50 nM for the first, 10 to 50 nM for the second.

Cc1c(F)cccc1S(=O)(=O)Nc1ccc(F)c(Nc2ncnc3cnc(-n4cc(C(=O)N(C)Cc5ccncc5)c5ccccc54)nc23)c1F [Example 98] was tested, and the IC50 was 10 to 50 nM.
